Measurements from patent publication US11738008B2, “N-methyl-D-aspartic acid receptor modulators” (Emory University, priority 2018, dated 2023).
Like-named read-outs stand apart in the source and are kept apart here.

What was measured:
α1A = α1A (Homo sapiens, UniProt P35348); experiment: NIMH PDSP radioligand binding, α1A; conditions: read-out: Radioligand binding in 10 μM compound (% control)
Method: (§1) The NIMH PDSP is Directed by Bryan L. Roth at the University of North Carolina at Chapel Hill and Project Officer Jamie Driscoll at NIMH, Bethesda Md., USA. Radioligand binding was measured in the presence of 10 μM 1180-420 and 1180-447. […] For experimental details please refer to the PDSP web site https://pdsp.unc.edu/ims/investigator/web/. Both 1180-420 and 1180-447 were also tested at AMPA, nicotinic acetylcholine, serotonin, GABA, and glycine ion channels using a two-electrode voltage clamp assay.
(§2) Receptor binding profiles of compound 1180-447 were generously provided by the National Institute of Mental Health's Psychoactive Drug Screening Program, Contract # HHSN-271-2013-00017-C(NIMH PDSP). The NIMH PDSP is directed by Bryan L. Roth at the University of North Carolina at Chapel Hill and Project Officer Jamie Driscoll at NIMH, Bethesda Md., USA. Radioligand binding was measured in the presence of 10 μM 1180-447. […] For experimental details please refer to the PDSP web site https://pdsp.unc.edu/ims/investigator/web/.
(§3) The NIMH PDSP is Directed by Bryan L. Roth at the University of North Carolina at Chapel Hill and Project Officer Jamie Driscoll at NIMH, Bethesda Md., USA. Radioligand binding was measured in the presence of 10 μM 1180-420. […] For experimental details please refer to the PDSP web site https://pdsp.unc.edu/ims/investigator/web/.

hERG = hERG (Homo sapiens, UniProt Q12809); experiment: NIMH PDSP hERG binding
Chain of hERG (Q12809 whole entry): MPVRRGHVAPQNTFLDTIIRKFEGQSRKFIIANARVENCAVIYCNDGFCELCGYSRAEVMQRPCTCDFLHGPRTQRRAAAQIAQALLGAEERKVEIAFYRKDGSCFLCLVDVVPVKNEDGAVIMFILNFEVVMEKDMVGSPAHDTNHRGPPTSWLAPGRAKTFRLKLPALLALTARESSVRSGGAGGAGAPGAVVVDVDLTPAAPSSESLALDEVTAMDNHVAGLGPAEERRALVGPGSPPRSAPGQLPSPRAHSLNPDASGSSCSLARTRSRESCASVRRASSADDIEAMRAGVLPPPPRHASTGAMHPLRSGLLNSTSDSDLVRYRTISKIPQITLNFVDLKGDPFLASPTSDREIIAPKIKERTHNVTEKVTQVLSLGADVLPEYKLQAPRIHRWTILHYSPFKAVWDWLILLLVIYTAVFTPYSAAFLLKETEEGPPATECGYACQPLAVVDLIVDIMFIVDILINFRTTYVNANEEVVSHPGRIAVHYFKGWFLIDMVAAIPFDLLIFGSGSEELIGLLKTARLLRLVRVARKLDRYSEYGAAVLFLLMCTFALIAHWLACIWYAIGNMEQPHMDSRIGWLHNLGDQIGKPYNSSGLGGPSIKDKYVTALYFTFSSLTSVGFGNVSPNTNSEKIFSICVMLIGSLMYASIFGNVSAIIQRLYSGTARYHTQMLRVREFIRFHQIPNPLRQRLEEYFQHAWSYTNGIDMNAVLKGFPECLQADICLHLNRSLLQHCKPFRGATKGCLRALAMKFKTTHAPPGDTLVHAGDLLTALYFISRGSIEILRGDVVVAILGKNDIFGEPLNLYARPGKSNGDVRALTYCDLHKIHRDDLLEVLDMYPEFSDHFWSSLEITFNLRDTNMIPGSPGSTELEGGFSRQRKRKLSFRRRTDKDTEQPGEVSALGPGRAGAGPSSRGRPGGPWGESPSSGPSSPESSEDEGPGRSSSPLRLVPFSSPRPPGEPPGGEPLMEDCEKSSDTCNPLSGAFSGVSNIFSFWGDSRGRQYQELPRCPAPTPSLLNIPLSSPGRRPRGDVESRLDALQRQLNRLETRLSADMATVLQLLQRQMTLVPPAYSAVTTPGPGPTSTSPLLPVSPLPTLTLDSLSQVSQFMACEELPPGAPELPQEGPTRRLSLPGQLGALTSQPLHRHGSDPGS
Method: as §1, §2, §3

5-HT1E = biological target: T1, 5-HT1E (Homo sapiens, UniProt P28566); experiment: NIMH PDSP radioligand binding, 5-HT1E; conditions: read-out: Radioligand binding in 10 μM compound (% control)
T1 construct: NIMH PDSP (assay provider)
Method: as §1, §2, §3

5-HT1D = biological target: T2, 5-HT1D (Homo sapiens, UniProt P28221); experiment: NIMH PDSP radioligand binding, 5-HT1D; conditions: read-out: Radioligand binding in 10 μM compound (% control)
T2 construct: NIMH PDSP (assay provider)
T2 sequence (P28221 whole entry, species assumed): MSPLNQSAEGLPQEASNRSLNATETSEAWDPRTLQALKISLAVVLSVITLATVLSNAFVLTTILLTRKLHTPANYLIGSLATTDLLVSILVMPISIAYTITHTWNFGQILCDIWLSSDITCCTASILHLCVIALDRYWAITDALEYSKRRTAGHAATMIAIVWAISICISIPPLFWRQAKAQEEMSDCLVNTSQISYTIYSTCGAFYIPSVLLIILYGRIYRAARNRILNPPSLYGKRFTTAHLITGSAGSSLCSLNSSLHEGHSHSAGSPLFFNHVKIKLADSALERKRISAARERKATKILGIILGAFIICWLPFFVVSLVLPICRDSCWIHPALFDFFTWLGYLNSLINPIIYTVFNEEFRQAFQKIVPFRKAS
Method: as §1, §2, §3

GluA1 = biological target: T3, GluA1 (Homo sapiens, UniProt P42261); experiment: Off-target two-electrode voltage clamp assay, GluA1; type: cell-based; conditions: 10 μM, mean ± SEM
T3 construct: expressed in transfected cells
T3 sequence (P42261 19-906, species assumed): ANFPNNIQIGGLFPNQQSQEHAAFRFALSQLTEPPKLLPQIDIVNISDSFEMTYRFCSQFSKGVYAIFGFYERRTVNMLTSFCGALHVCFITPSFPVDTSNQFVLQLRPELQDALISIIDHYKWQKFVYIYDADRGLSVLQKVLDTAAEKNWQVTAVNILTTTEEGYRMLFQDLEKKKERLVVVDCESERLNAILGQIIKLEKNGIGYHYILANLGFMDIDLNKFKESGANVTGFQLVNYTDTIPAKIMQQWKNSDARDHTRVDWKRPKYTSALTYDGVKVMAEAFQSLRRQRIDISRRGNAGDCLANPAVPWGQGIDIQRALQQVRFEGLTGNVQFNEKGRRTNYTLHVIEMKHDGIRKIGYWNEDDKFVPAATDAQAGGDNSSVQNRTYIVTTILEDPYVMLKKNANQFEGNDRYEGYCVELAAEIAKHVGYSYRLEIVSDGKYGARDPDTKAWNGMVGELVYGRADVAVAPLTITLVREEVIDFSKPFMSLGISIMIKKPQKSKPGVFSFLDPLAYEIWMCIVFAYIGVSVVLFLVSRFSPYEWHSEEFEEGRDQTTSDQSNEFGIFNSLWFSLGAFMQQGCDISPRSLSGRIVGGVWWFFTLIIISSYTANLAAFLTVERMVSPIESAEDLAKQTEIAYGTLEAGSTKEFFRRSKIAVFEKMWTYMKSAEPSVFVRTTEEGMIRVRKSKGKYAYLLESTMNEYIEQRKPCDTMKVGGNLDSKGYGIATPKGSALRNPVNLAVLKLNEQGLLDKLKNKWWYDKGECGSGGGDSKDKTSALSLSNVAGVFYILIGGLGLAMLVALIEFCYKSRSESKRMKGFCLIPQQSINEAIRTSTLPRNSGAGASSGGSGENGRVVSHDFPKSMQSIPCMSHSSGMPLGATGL
Method: as §1

5-HT6 = biological target: T4, 5-HT6 (Homo sapiens, UniProt P50406); experiment: NIMH PDSP radioligand binding, 5-HT6; conditions: read-out: Radioligand binding in 10 μM compound (% control)
T4 construct: NIMH PDSP (assay provider)
Method: as §1, §2, §3

5-HT1A = biological target: T5, 5-HT1A (Homo sapiens, UniProt P08908); experiment: NIMH PDSP radioligand binding, 5-HT1A; conditions: read-out: Radioligand binding in 10 μM compound (% control)
T5 construct: NIMH PDSP (assay provider)
T5 sequence (P08908 whole entry, species assumed): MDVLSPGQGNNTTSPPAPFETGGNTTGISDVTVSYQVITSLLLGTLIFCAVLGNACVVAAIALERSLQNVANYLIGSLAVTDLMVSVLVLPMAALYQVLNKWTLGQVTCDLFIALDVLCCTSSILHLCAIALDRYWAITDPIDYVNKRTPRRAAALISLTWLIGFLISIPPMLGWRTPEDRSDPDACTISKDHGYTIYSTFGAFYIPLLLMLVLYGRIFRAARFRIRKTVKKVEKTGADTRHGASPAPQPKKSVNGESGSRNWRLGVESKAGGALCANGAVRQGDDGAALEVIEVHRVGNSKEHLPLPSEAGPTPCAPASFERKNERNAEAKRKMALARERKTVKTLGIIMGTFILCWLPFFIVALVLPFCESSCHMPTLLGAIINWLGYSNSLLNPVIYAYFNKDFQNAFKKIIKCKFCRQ
Method: as §1, §2, §3

5-HT7 = biological target: T6, 5-HT7 (Homo sapiens, UniProt P34969); experiment: NIMH PDSP radioligand binding, 5-HT7; conditions: read-out: Radioligand binding in 10 μM compound (% control)
T6 construct: NIMH PDSP (assay provider)
Method: as §1, §2, §3

α1B = α1B (Homo sapiens, UniProt P35368); experiment: NIMH PDSP radioligand binding, α1B; conditions: read-out: Radioligand binding in 10 μM compound (% control)
Method: as §1, §2, §3

σ2 = σ2 (Homo sapiens, UniProt Q5BJF2); experiment: NIMH PDSP radioligand binding, σ2; conditions: for remaining activity at 10 µM: read-out: Radioligand binding in 10 μM compound (% control); for Ki: read-out: pKi values from non-linear regression of radioligand competition binding isotherms (converted)
Chain of σ2 (Q5BJF2 whole entry): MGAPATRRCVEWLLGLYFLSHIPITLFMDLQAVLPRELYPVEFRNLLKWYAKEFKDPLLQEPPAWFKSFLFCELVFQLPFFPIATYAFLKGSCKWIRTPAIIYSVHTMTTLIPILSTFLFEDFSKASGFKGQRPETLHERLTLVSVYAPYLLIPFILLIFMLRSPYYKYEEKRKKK
Method: as §1, §2, §3

H4 = H4 (Homo sapiens, UniProt Q9H3N8); experiment: NIMH PDSP radioligand binding, H4; conditions: read-out: Radioligand binding in 10 μM compound (% control)
Method: as §1, §2, §3

serotonin transporter = serotonin transporter (Homo sapiens, UniProt P31645); experiment: NIMH PDSP radioligand binding, serotonin transporter; conditions: read-out: Radioligand binding in 10 μM compound (% control)
Method: as §1, §2, §3

α1β2γδ-nACh = experiment: Off-target two-electrode voltage clamp assay, α1β2γδ-nACh; type: cell-based; conditions: 10 μM, mean ± SEM
Method: as §1

α1β2γ2-GABAA = biological target: T7, α1β2γ2-GABAA (Homo sapiens, UniProt P14867+P18507+P47870); experiment: Off-target two-electrode voltage clamp assay, α1β2γ2-GABAA; type: cell-based; conditions: 10 μM, mean ± SEM
T7 construct: expressed in transfected cells
Method: as §1

β1 = β1 (Homo sapiens, UniProt P08588); experiment: NIMH PDSP radioligand binding, β1; conditions: read-out: Radioligand binding in 10 μM compound (% control)
Chain of β1 (P08588 whole entry): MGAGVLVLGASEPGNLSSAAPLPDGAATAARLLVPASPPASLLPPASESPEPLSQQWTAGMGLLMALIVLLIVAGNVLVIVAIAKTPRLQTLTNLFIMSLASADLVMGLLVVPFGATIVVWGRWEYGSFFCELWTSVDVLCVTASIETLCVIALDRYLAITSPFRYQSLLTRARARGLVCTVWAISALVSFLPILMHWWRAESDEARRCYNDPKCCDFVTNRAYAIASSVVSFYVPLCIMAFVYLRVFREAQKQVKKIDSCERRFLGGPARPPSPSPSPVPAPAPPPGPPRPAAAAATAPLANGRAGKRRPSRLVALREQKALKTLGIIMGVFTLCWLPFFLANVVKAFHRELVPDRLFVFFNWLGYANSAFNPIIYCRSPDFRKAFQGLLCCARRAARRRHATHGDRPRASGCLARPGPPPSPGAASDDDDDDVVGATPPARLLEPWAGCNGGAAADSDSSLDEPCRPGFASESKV
Method: as §1, §2, §3

D3 = biological target: T8, D3 (Homo sapiens, UniProt P35462); experiment: NIMH PDSP radioligand binding, D3; conditions: read-out: Radioligand binding in 10 μM compound (% control)
T8 construct: NIMH PDSP (assay provider)
T8 sequence (P35462 whole entry): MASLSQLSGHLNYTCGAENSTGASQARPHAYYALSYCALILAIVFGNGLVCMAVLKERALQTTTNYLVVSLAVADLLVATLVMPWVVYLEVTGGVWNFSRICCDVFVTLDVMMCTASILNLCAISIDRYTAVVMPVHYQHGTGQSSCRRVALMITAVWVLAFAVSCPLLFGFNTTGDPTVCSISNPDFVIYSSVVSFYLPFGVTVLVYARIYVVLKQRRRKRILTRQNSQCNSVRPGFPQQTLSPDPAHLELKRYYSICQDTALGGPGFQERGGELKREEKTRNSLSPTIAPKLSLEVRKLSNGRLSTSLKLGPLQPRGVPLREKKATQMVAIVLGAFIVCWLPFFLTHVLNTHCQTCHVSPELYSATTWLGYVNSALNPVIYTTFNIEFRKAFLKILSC
Method: as §1, §2, §3

M1 = M1 (Homo sapiens, UniProt P11229); experiment: NIMH PDSP radioligand binding, M1; conditions: read-out: Radioligand binding in 10 μM compound (% control)
Chain of M1 (P11229 whole entry): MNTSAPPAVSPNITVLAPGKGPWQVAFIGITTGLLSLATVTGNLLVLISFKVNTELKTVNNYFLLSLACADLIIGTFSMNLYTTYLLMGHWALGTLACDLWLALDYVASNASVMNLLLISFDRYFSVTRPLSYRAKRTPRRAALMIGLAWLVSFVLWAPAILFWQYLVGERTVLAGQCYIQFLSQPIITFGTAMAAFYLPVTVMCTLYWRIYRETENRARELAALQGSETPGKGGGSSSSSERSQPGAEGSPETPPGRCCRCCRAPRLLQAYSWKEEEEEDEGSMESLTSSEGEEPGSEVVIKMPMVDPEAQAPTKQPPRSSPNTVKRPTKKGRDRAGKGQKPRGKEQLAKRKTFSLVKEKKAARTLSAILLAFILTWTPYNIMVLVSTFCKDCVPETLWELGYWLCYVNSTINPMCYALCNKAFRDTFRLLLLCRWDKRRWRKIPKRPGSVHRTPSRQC
Method: as §1, §2, §3

[1] = In vivo pharmacokinetics, plasma and brain, IP 10 mg/kg; parameters: species or system C57BL/6 mice; conditions: mouse; for AUC % Extrapolation / AUCINF / AUCLAST / t½terminal / Tmax / Cmax / AUC(0-inf) / AUC(0-t): mean; for max brain concentration / half-life: IP 10 mg/kg; for Kp / half-life / Tmax / Cmax / AUC(0-inf) / AUC(0-t): male; for Kp: C57BL/6, brain and plasma, IP 10 mg/kg fed, read-out: Ratio_AUCLAST (Brain/plasma); for half-life: C57BL/6, plasma, read-out: half-lives in plasma; for Tmax / Cmax / AUC(0-inf) / AUC(0-t): C57BL/6
Method: In vivo analysis of 1180-420 and 1180-447 for pharmacokinetic properties: In vivo analysis of 1180-420 and 1180-447 for pharmacokinetic properties was performed by Pharmaron (Irvine, Calif.). […] The mouse is placed head down at a 45-degree angle to facilitate blood removal. After perfusion, the brain ventricle is opened, and the brain is removed. […] The mixtures were then vortexed for 30 seconds and subsequently centrifuged (˜4000 rpm) for 15 minutes.

[2] = biological target: translocator protein (peripheral benzodiazepine site) (Homo sapiens, UniProt P30536); experiment: NIMH PDSP radioligand binding, translocator protein; conditions: read-out: Radioligand binding in 10 μM compound (% control)
Chain of translocator protein (peripheral benzodiazepine site) (P30536 whole entry, species assumed): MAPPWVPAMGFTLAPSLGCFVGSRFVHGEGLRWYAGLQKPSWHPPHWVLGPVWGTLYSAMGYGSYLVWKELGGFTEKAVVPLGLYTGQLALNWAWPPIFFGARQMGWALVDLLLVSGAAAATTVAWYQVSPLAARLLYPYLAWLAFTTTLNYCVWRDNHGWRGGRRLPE
Method: as §1, §2, §3

M5 = M5 (Homo sapiens, UniProt P08912); experiment: NIMH PDSP radioligand binding, M5; conditions: read-out: Radioligand binding in 10 μM compound (% control)
Method: as §1, §2, §3

[3] = Brain IP 10 mg/kg fed, read-out: Cmax
[4] = Brain IP 10 mg/kg fed, read-out: Cmax (ng/g)
[5] = Plasma IP 10 mg/kg fed, read-out: Cmax
[6] = Plasma IP 10 mg/kg fed, read-out: Cmax (ng/mL)

Chain of α1A (P35348 whole entry): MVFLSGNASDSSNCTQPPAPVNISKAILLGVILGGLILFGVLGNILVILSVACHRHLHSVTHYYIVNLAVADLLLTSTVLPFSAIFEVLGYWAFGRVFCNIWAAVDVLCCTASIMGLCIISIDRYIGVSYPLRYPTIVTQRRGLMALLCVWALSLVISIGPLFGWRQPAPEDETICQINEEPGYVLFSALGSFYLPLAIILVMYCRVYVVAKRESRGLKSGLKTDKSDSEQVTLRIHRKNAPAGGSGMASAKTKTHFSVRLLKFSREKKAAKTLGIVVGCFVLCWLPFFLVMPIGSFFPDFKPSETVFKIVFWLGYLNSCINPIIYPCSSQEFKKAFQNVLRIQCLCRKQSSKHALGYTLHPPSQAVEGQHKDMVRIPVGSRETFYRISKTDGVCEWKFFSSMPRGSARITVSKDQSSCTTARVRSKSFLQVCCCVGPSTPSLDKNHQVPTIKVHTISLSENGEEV

COc1ccc(OCC2c3cccn3CCN2C(=O)c2cccc(Cl)c2)cc1 (centres unmarked) [1180-420, (3-Chlorophenyl)(1-((4-methoxyphenoxy)methyl)-3,4-dihydropyrrolo[1,2-a]pyrazin-2(1H)-yl)methanone]
remaining activity at 10 µM (α1A): 91% | Radioligand binding in 10 μM compound (% control) (hERG): 73 % control | remaining activity at 10 µM (5-HT1E): 78% | remaining activity at 10 µM (5-HT1D): 112% | % control response (GluA1): 98.9 ± 13.7 % control response | remaining activity at 10 µM (5-HT6): 75% | remaining activity at 10 µM (5-HT1A): 110% | remaining activity at 10 µM (5-HT7): 115% | remaining activity at 10 µM (α1B): 100% | remaining activity at 10 µM (σ2): 48% | Ki (σ2): 1.58 µM | remaining activity at 10 µM (H4): 90% | remaining activity at 10 µM (serotonin transporter): 86% | % control response (α1β2γδ-nACh): 93.4 ± 15.5 % control response | % control response (α1β2γ2-GABAA): 81.4 ± 8.5 % control response | remaining activity at 10 µM (β1): 98% | remaining activity at 10 µM (D3): 71% | remaining activity at 10 µM (M1): 90% | AUC % Extrapolation ([1]; Brain IP 10 mg/kg fed): 7% | AUCINF ([1]; Brain IP 10 mg/kg fed): 1413 ng·h/g | AUCLAST ([1]; Brain IP 10 mg/kg fed): 1315 ng·h/g | t½terminal ([1]; Brain IP 10 mg/kg fed): 66 min | max brain concentration [1]: 4 µM | AUC % Extrapolation ([1]; Plasma IP 10 mg/kg fed): 8% | t½terminal ([1]; Plasma IP 10 mg/kg fed): 66 min | Kp [1]: 2 | half-life [1]: > 60 min | Tmax ([1]; Brain IP 10 mg/kg fed): 18 min | Cmax [1, 3]: 3500 nM | Cmax [1, 4]: 1410 ng/g | AUC(0-inf) ([1]; Plasma IP 10 mg/kg fed): 856 ng·h/mL | AUC(0-t) ([1]; Plasma IP 10 mg/kg fed): 792 ng·h/mL | Tmax ([1]; Plasma IP 10 mg/kg fed): 18 min | Cmax [1, 5]: 2100 nM | Cmax [1, 6]: 841 ng/mL | remaining activity at 10 µM [2]: 67% | remaining activity at 10 µM (M5): 101%

COc1ccc(OCC2c3cccn3CC(=O)N2Cc2cccc(C(F)(F)F)c2)cc1 (racemic) [1180-447, 1-((4-Methoxyphenoxy)methyl)-2-(3-(trifluoromethyl)benzyl)-1,2-dihydropyrrolo[1,2-a]pyrazin-3(4H)-one]
remaining activity at 10 µM (α1A): 97% | Radioligand binding in 10 μM compound (% control) (hERG): 70 % control | remaining activity at 10 µM (5-HT1E): 80% | remaining activity at 10 µM (5-HT1D): 115% | % control response (GluA1): 96.8 ± 13.3 % control response | remaining activity at 10 µM (5-HT6): 85% | remaining activity at 10 µM (5-HT1A): 101% | remaining activity at 10 µM (5-HT7): 83% | remaining activity at 10 µM (α1B): 102% | remaining activity at 10 µM (σ2): 32% | Ki (σ2): 1.58 µM | remaining activity at 10 µM (H4): 107% | remaining activity at 10 µM (serotonin transporter): 91% | % control response (α1β2γδ-nACh): 78.5 ± 4.5 % control response | % control response (α1β2γ2-GABAA): 81.7 ± 7.5 % control response | remaining activity at 10 µM (β1): 80% | remaining activity at 10 µM (D3): 93% | remaining activity at 10 µM (M1): 88% | AUC % Extrapolation ([1]; Brain IP 10 mg/kg fed): 9% | AUCINF ([1]; Brain IP 10 mg/kg fed): 1836 ng·h/g | AUCLAST ([1]; Brain IP 10 mg/kg fed): 1670 ng·h/g | t½terminal ([1]; Brain IP 10 mg/kg fed): 72 min | max brain concentration [1]: 4 µM | AUC % Extrapolation ([1]; Plasma IP 10 mg/kg fed): 6% | t½terminal ([1]; Plasma IP 10 mg/kg fed): 60 min | Kp [1]: 2 | half-life [1]: > 60 min | Tmax ([1]; Brain IP 10 mg/kg fed): 30 min | Cmax [1, 3]: 3900 nM | Cmax [1, 4]: 1670 ng/g | AUC(0-inf) ([1]; Plasma IP 10 mg/kg fed): 760 ng·h/mL | AUC(0-t) ([1]; Plasma IP 10 mg/kg fed): 715 ng·h/mL | Tmax ([1]; Plasma IP 10 mg/kg fed): 18 min | Cmax [1, 5]: 1500 nM | Cmax [1, 6]: 635 ng/mL | remaining activity at 10 µM [2]: 84% | remaining activity at 10 µM (M5): 108%
